Results reported in patent US9035022B2, “Cyclic CRF antagonist peptides” (Salk Institute for Biological Studies, priority 2010, dated 2015).

Test system: adrenalectomized (ADX) rats
Test: In vivo assay of ACTH secretion in adrenalectomized (ADX) rats
Parameters: species or system rat
Protocol: The in vivo assays which are employed to test these CRF antagonists use adrenalectomized (ADX) rats. […] Their diet is supplemented with 0.9% NaCl in the drinking water and with oranges. Two days prior to the experiments, the animals are equipped with jugular cannulae, as described in C. […] On the morning of the experiments, the i.v. cannulae are connected to a line filled with heparinized saline, and the rats are placed in individual buckets and left undisturbed for 2 hours. For the experiment, a first blood sample of 0.3 mL is withdrawn, the test solution is injected (in an 0.2-0.5 mL volume), and subsequent blood samples are obtained at about 15, 45, 90 and 120 minutes. The blood samples are centrifuged, and the separated plasma are kept frozen (−20° C.) until assayed for ACTH values. Plasma ACTH levels are measured as described in C.

[Aib^19,24,32, Orn^25]-Astressin B [V]
inhibition of secretion of ACTH and corticosterone (general procedure of Example I): inhibits the secretion of ACTH and corticosterone

[Tyr-Asp^1, Aib^19,24,32]-Astressin B [IV]
inhibition of secretion of ACTH and β-END-LI (administration of the peptide): inhibits the secretion of ACTH and β-END-LI
